Results from patent US5998366A, “Method for ameliorating glutamic acid decarboxylase associated autoimmune disorders” (The Regents of the University of California, priority 1997, dated 1999).

Legend:
[1] = tested on: spleen cells of treated female NOD mice; assay: Proliferative splenic T-cell responses to antigens after tolerance induction; format: in vivo
Experimental: (§1) NOD (Taconic farms) and BALB/c mice (Jackson Laboratories) were kept under specific pathogen free conditions. The mice were sacrificed at the ages indicated and the spleen cells were tested directly ex vivo for their proliferative recall response to antigen. Single cell suspensions of spleen cells were plated at 1×10^6 cells per well in 96 well microtiter plates in 200 μl serum free HL-1 medium (Ventrex) that was supplemented with 2 mM glutamine with or without 10 μg/ml antigen (or 7 μM peptide) in triplicate cultures. During the last 16 h of the 72 h culture period, 1 μCi[^3 H]-thymidine was added per well. Incorporation of label was measured by liquid scintillation counting.
1. In these experiments female NOD mice were intravenously injected at 3 weeks of age with 50 μg GAD, μ-galactosidase, mycobacterial hsp65 (m-hsp) or 0.1 μg of the immunodominant hsp peptide (hsp-p), in PBS. At 12 weeks of age, mice were examined for insulitis and autoantigen reactive T-cells. At this age both indications are established in untreated NOD mice. Pancreatic tissue sections were stained by immunoperoxidase techniques for insulin and were counterstained with hematoxylin. Insulitis was scored in a blinded manner by examining 54 to 87 islets on 5 interrupted tissue sections from each pancreas. […] Data in Table 8 are expressed as the average [^3 H]-thymidine label (cpm) incorporated in triplicate cultures. […]

female NOD mice [2] = assay: GAD immunization of 8 week old NOD mice, onset of IDDM; format: in vivo
Text: An IPTG inducible T7 expression vector was used to express both human GAD65 and E. coli b galactosidase (β-gal). In IPTG induced recombinant E. coli, GAD and β-gal constitute about 10-20% of the total bacterial protein. However, almost all of the GAD was in inclusion bodies, which could be isolated and extensively washed to obtain material that is about 80% GAD. We then did affinity purifications of GAD and β-gal on the basis of a hexa-histidine "tag" which was attached to GAD during the subcloning process. These extra histidine residues allow the rapid affinity purification (Novagen) of GAD by metal affinity chromatography (Hochuli, et al., Bio Technology, 6:1321-1325, 1988). The inclusion body material is solubilized in 6M guanidine hydrochloride (GHCL), 10 mm β-mercaptoethanol and 1% triton X-100. After binding to the column, the column was extensively washed with GHCL and 8M urea in phosphate buffers. Only the central peak GAD fraction was utilized for subsequent studies. Human GAD65 shares 96% amino acid sequence identity with murine GAD65, with most of the amino acid differences being conservative substitutions.
Breeder mice were purchased from Taconic Farms and housed under specific pathogen-free conditions. Only female NOD mice were used in this study. The average age of IDDM onset in unrelated females in the colony was 22 weeks. Insulitis is generally observed beginning at 4 weeks of age. T cell responses to GAD, HSP, CPH were found by 6 weeks in age. The incidence of IDDM in female mice is 70-90% by one year of age.
At 8 weeks of age, 25 ug GAD or control β-gal. was injected intraperftoneally (ip) in 100 ul of incomplete Freunds adjuvant (IFA). Because there may be a requirement for continual antigen presentation (Ramsdell, et al., Science, 257:1130-1133, 1992) mice were treated again every 6 weeks. Urine glucose levels were monitored twice weekly. After observing above normal glucose in urea, blood glucose levels were monitored twice weekly. Two consecutive blood glucose level readings of […] was considered as IDDM onset, after which the mice were sacrificed and spleen cells were tested as described above in Example 6 for evidence of spleen cell proliferation.

[3] = tested on: spleen cells of treated female NOD mice; assay: Proliferative splenic T-cell responses to antigens after tolerance induction; format: in vivo; details: Table 8A: i.v. at 3 weeks, tested at 12 weeks
spleen cells of NOD mice = assay: Proliferative recall response of spleen cells to β-cell antigens, by age; format: cell-based
Experimental: as §1
Both human GAD65 (Bu, et al., Proc. Natl. Acad. Sci., 89:2115-2119, 1992) and E. coli β-gal (control) were purified from recombinant bacteria on the basis of a hexahistidine tag which allows their rapid affinity purification by metal affinity chromatography (Hochuli, et al., Bio/Technology, 6:1321-1325, 1988). Bovine CPH was the generous gift of L. Fricker (Albert Einstein Col. Med.) and human insulin was purchased from Eli Lilly.

female NOD mice [4] = assay: Long-term diabetes incidence, insulitis and βCA reactive T cells after GAD tolerization; format: in vivo
Experimental: 1. In these experiments female NOD mice were intravenously injected at 3 weeks of age with 50 μg GAD, μ-galactosidase, mycobacterial hsp65 (m-hsp) or 0.1 μg of the immunodominant hsp peptide (hsp-p), in PBS. At 12 weeks of age, mice were examined for insulitis and autoantigen reactive T-cells. At this age both indications are established in untreated NOD mice. Pancreatic tissue sections were stained by immunoperoxidase techniques for insulin and were counterstained with hematoxylin. Insulitis was scored in a blinded manner by examining 54 to 87 islets on 5 interrupted tissue sections from each pancreas. Proliferative splenic T-cell responses induced by various antigens were performed as described above in Example 4. Data in Table 8 are expressed as the average [^3 H]-thymidine label (cpm) incorporated in triplicate cultures.
Five GAD treated mice were sacrificed at 30 weeks of age.

[5] = five treated mice sacrificed at 30 weeks

GAD: human GAD65 purified from recombinant bacteria on the basis of a hexahistidine tag
share of treated mice with no T-cell reactivity to GAD (complete tolerization) or to other βCAs ([1]; i.v. at 3 weeks, tested at 12 weeks): Seventy five percent | weak residual GAD reactivity of the mice not completely tolerized ([1]; twenty five percent of the GAD-treated mice): about 3 SI | age until which 8 of the immunized mice showed no signs of hyperglycemia (female NOD mice [2]; 25 ug ip in IFA at 8 weeks, again every 6 weeks): 36 weeks | treated mice remaining disease free at 52 weeks of age (female NOD mice [2]; 25 ug ip in IFA at 8 weeks, again every 6 weeks, 10 mice per group): Four | significance of the delay or prevention of diabetes (female NOD mice [2]; versus β-gal immunized mice): < 0.02 | Spleen Cell Proliferation (SI ± SEM) CPH ([3]; recall antigen CPH): 1.1 ± 0.02 SI | Spleen Cell Proliferation (SI ± SEM) GAD ([3]; recall antigen GAD): 1.6 ± 0.3 SI | Spleen Cell Proliferation (SI ± SEM) GAD Peptides #17 ([3]; recall antigen GAD peptide #17): 1.0 ± 0.05 SI | Spleen Cell Proliferation (SI ± SEM) GAD Peptides #34 ([3]; recall antigen GAD peptide #34): 1.2 ± 0.1 SI | Spleen Cell Proliferation (SI ± SEM) GAD Peptides #35 ([3]; recall antigen GAD peptide #35): 1.0 ± 0.1 SI | Spleen Cell Proliferation (SI ± SEM) hsp Peptide ([3]; recall antigen hsp peptide): 1.2 ± 0.1 SI | Spleen Cell Proliferation (SI ± SEM) β-Gal ([3]; recall antigen β-Gal): 1.1 ± 0.03 SI | T cell proliferation in non-diseased spleen cells (spleen cells of NOD mice; <4 or >16 week old NOD or control BALB/c or (NOD/BALB/c)F1 spleen cells): did not induce T cell proliferation | age at which the proliferative T-cell response to the antigen appeared (spleen cells of NOD mice; female NOD mice, 10 μg/ml antigen or 7 μM peptide, 72 h culture (FIG. 8)): 4 weeks | insulitis at 30 weeks of age (female NOD mice [4]; [5]): four mice were completely free of insulitis | βCA reactive T cells at 30 weeks of age (female NOD mice [4]; [5]): free of detectable βCA reactive T cells | glucose levels of treated mice (female NOD mice [4]; n=17, presently 37 weeks old): normal glucose levels
